From patent US20250177579A1, “NOVEL COMPOUND, a-SYNUCLEIN AGGREGATE BINDER, AND USE THEREOF” (NATIONAL INSTITUTES FOR QUANTUM SCIENCE AND TECHNOLOGY, priority 2022, published 2025)

Columns and labels:
[1] = molecular target: T1, α-synuclein lesions (Mus musculus, UniProt O55042); assay: In vivo two-photon laser scanning fluorescence microscopy of α-synuclein fibril-inoculated mouse; details: 50 μl of 0.1% DMSO solution, imaging 30 minutes after administration, FIG. 4; for binding to α-synuclein lesions in vivo: excitation 900 nm
T1 construct: from tissue; host or cells: brain of a C57/BL/6 mouse inoculated in the striatum with recombinant mouse α-synuclein fibrils (made in E. coli)
Description: First, mouse α-synuclein was expressed in and extracted from E. coli as a recombinant protein, and then incubated in vitro to form insoluble α-synuclein aggregates. The α-synuclein aggregates were then inoculated into the striatum of a mouse. […] Note that the inoculation of the α-synuclein aggregates into the striatum of the mouse was carried out in the following manner. First, hair on the head of a 9-week-old C57/BL/6 male mouse which had been anesthetized with 1.5% (v/v) isoflurane was removed, and the scalp was disinfected with isodine, followed by application of xylocaine and incision in the scalp to expose the skull. Then, a hole was drilled in the skull at a position of 0.05 mm posterior to the bregma and 2 mm lateral to the midline, and 3 μl of an α-synuclein fibril solution (mouse α-synuclein fibril (4 mg/ml) in saline) was injected into a position 2 mm ventral to the brain surface with use of a glass pipette. The scalp was then returned and sutured.
A model mouse was anesthetized with 1.5% (v/v) isoflurane 4 or more months after inoculation of an α-synuclein fibril solution. Then, a cranial window was placed on the model mouse in accordance with the Seylaz-Tomita method (Tomita et al. J Cereb Blood Flow Metab 25, 858-67, 2005). Two or more weeks after the placement of the cranial window, the mouse was fixed under a two-photon laser fluorescence microscope, 100 μl of physiological saline containing 5 mmol/1 Sulforhodamine 101 was intraperitoneally administered to the mouse, and then intravital two-photon fluorescence imaging was carried out at an excitation wavelength of 900 nm. Thereafter, 50 μl of DMSO solution containing C05-05, SPAL-T-83, SPAL-T-95, or SPAL-E-17 at a 0.1% concentration was intraperitoneally administered to the mouse. Thirty minutes after the administration, intravital two-photon fluorescence imaging was carried out at an excitation wavelength of 900 nm. Detection wavelengths for C05-05, SPAL-T-83, SPAL-T-95, and SPAL-E-17 were set at 500 nm to 550 nm, and a detection wavelength for Sulforhodamine 101 was set at 573 nm to 648 nm. In FIG. 4, each arrow indicates a blood vessel, and each arrowhead indicates fluorescence from the compound binding to an α-synuclein lesion.

[2] = molecular target: T2, phosphorylated α-synuclein (Mus musculus, UniProt O55042); assay: In vitro fluorescence microscope measurement, brain sections of α-synuclein fibril-inoculated mouse; format: binding; details: 30 μmol/l test compound, 20% ethanol, co-stained with pS129 antibody, FIG. 3
T2 construct: from tissue; host or cells: brain of a C57/BL/6 mouse inoculated in the striatum with recombinant mouse α-synuclein fibrils (made in E. coli)
Description: When mouse α-synuclein is expressed in and extracted from E. coli as a recombinant protein and then incubated in vitro, insoluble α-synuclein aggregates are formed. By inoculating these α-synuclein aggregates into the striatum of a mouse, the α-synuclein aggregates propagate to surrounding areas via the neural circuitry, and an α-synuclein lesion is observed in the cerebral neocortex several months later (Masuda-Suzukake et al. Acta Neuropathol Commun 2, 88, 2014; Shimozawa et al. Acta Neuropathol Commun 5, 12, 2017). By extracting the brain of this mouse, preparing a section, and then analyzing the section by fluorescent staining, it is possible to examine whether the compound in accordance with an embodiment of the present invention binds to a lesion caused by phosphorylated α-synuclein.
First, mouse α-synuclein was expressed in and extracted from E. coli as a recombinant protein, and then incubated in vitro to form insoluble α-synuclein aggregates. The α-synuclein aggregates were then inoculated into the striatum of a mouse. […] Note that the inoculation of the α-synuclein aggregates into the striatum of the mouse was carried out in the following manner. […]
The brain of this α-synuclein fibril-inoculated mouse was extracted, and then sections were prepared. The sections were analyzed by fluorescent staining. […] After the section was mounted in a mounting medium (VECTASHIELD H-1000), an image of an α-synuclein aggregate-enriched area on the section was obtained with use of a fluorescence microscope (DM4000). […] After the section was subjected to immunohistochemical staining with use of an anti-phosphorylated α-synuclein monoclonal antibody (pS129, abcam, ab59264) (1:1000) and then mounted in a mounting medium (VECTASHIELD H-1000), an image of the same area as above was obtained with use of a fluorescence microscope (DM4000). […] In FIG. 3, each arrowhead indicates a lesion, caused by phosphorylated α-synuclein, in the brain of the α-synuclein fibril-inoculated mouse and fluorescence from the compound binding to the phosphorylated α-synuclein.

[3] = system: tau aggregates or amyloid-β aggregates; assay: In vitro fluorescence microscope measurement, AD patient brain sections compared with DLB sections; format: binding, human; details: for binding to α-synuclein aggregates compared with binding to tau aggregates or amyloid-β aggregates formed in the brain of the AD patient: 30 μmol/l test compound, DLB amygdala vs AD superior temporal gyrus sections; for ratio of binding to α-synuclein aggregates to binding to tau aggregates or amyloid-β aggregates, compared with the ratio of C05-05: 30 μmol/l, fluorescence intensity quantified, FIG. 2, comparator C05-05
Source text: (§1) Postmortem human brains were obtained in autopsies carried out with respect to a patient with dementia with Lewy bodies (DLB) and a patient with Alzheimer's disease (AD). In a cryostat (HM560, Carl Zeiss), frozen tissue from the DLB patient was sliced into sections each having a thickness of 20 μm. Brain tissue from the AD patient was fixed in 10% neutral buffered formalin, embedded in a paraffin block, and sliced into sections each having a thickness of 6 μm.
(§2) Each brain section and a 30 μmol/l test compound were incubated in a 50% ethanol solution at room temperature for 30 minutes. Subsequently, the sections were rinsed with 50% ethanol for 5 minutes and dipped into double-distilled water twice for 3 minutes each. After the section was mounted in a mounting medium (VECTASHIELD H-1000, Vector Laboratories), an image of a lesion-enriched area on the section was obtained with use of a fluorescence microscope (DM4000, Leica). In FIG. 1, each arrowhead indicates fluorescence from the compound binding to α-synuclein aggregates in the brain of the DLB patient, each arrow indicates fluorescence from the compound binding to amyloid-β aggregates in the brain of the AD patient, and an asterisk indicates fluorescence from the compound binding to tau aggregates in the brain of the AD patient. The fluorescence intensities of lesion-enriched areas and lesion-free areas (background) were quantified with use of analysis software (Image J). Note that SPAL-T-83, SPAL-T-95, and SPAL-E-17 were each used as the test compound. Note also that ((E)-1-fluoro-3-(2-(4-(6-(methylamino)pyridin-3-yl)but-1-en-3-ynyl)benzo[d]thiazol-6-yloxy)propan-2-ol (C05-05) synthesized by the method disclosed in Synthetic Example 21 of Patent Literature 2 (International Publication No. WO 2020/174963) listed above was used as a control compound.

[4] = molecular target: T3, α-synuclein aggregates (Homo sapiens, UniProt P37840); assay: In vitro fluorescence microscope measurement, DLB patient brain sections; format: binding; set-up: from tissue; host or cells: amygdala sections of a DLB patient's postmortem brain; details: 30 μmol/l test compound, 50% ethanol, amygdala sections of DLB patient, FIGS. 1 and 2
Source text: as §1, §2

[5] = molecular target: T3, α-synuclein aggregates; details: background art, cited from earlier work

binding to α-synuclein lesions in vivo [1]	binding to α-synuclein aggregates compared with binding to tau aggregates or amyloid-β aggregates formed in the brain of the AD patient [3]	ratio of binding to α-synuclein aggregates to binding to tau aggregates or amyloid-β aggregates, compared with the ratio of C05-05 [3]	binding to α-synuclein aggregates formed in the brain of the DLB patient (fluorescence) [4]	SMILES	delivery into the brain and neurons of the living body [1]	binding to a lesion caused by phosphorylated α-synuclein [2]	binding selectivity with respect to the α-synuclein aggregates ([5]; binds to amyloid-β aggregates)	binding affinity with respect to the α-synuclein aggregates [5]
bound to α-synuclein lesions	greater	higher	bound to α-synuclein aggregates	CNc1ccc(C#C/C=C/c2nc3ccc(NCC(O)CF)cc3s2)cn1 (stereo not shown) [SPAL-T-95, (E)-1-fluoro-3-((2-(4-(6-(methylamino)pyridin-3-yl)but-1-en-3-yn-1-yl)benzo[d]thiazol-6-yl)amino)propan-2-ol]	delivered into the brain and further into neurons of the living body	bound to a lesion caused by phosphorylated α-synuclein		
bound to α-synuclein lesions	greater	higher	bound to α-synuclein aggregates	CNc1cnc(C#C/C=C/c2nc3ccc(NCC(O)CF)cc3s2)cn1 (stereo not shown) [SPAL-T-83, (E)-1-fluoro-3-((2-(4-(5-(methylamino)pyrazin-2-yl)but-1-en-3-yn-1-yl)benzo[d]thiazol-6-yl)amino)propan-2-ol]	delivered into the brain and further into neurons of the living body	bound to a lesion caused by phosphorylated α-synuclein		
bound to α-synuclein lesions				CNc1ccc(C#C/C=C/c2nc3ccc(OCC(O)CF)cc3s2)cn1 (stereo not shown) [Compound C05-05, reference compound]	delivered into the brain and further into neurons of the living body			
				CN([11CH3])c1ncc(/C=C/c2nc3ccc(OCCF)cc3o2)s1 [[^11C]BF-227]			low binding selectivity	insufficient binding affinity
bound to α-synuclein lesions	greater	higher	bound to α-synuclein aggregates	CNc1cnc(C#C/C=C/c2nc3ccc(OCC(O)CF)nc3s2)cn1 (stereo not shown) [SPAL-E-17, (E)-1-fluoro-3-((2-(4-(5-(methylamino)pyrazin-2-yl)but-1-en-3-yn-1-yl)thiazolo[5,4-b]pyridin-5-yl)oxy)propan-2-ol]	delivered into the brain and further into neurons of the living body	bound to a lesion caused by phosphorylated α-synuclein		
